According to US20020035058A1, “Isopentenyl pyrophosphate isomerase (IPI) and/or prenyl transferase inhibitors” (The University of Sheffield, priority 1996, published 2002):
Where two headings read alike, the source gives them in different places.

Assays:
squalene synthase = molecular target: T1, squalene synthase (Rattus norvegicus, UniProt Q02769); details: cited from earlier work
T1 sequence (Q02769 1-416): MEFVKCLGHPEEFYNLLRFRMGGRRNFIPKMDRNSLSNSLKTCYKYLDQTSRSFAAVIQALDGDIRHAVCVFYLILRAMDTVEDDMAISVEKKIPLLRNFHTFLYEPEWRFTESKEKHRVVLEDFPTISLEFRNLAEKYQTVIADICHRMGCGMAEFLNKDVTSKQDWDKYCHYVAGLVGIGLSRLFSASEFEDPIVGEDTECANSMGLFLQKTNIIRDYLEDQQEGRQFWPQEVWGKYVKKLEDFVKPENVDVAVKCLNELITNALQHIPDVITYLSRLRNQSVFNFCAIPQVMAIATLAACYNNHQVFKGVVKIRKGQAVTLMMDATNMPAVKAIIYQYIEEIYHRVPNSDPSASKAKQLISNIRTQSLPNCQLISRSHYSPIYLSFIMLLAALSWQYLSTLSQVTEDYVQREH

J774 macrophages [1] = test: Loss of total cell viability, MTT reduction; format: cell-based; details: for IC50: read-out: concentration causing 50% loss of total cell viability
IPI (IPP isomerase) = IPI (IPP isomerase) (Homo sapiens, UniProt Q13907); test: Inhibition of IPI (IPP isomerase) by bisphosphonates; format: biochemical; details: concentration required to inhibit enzyme activity by 50%
Ras = test: Immunoprecipitation of Ras: farnesylation of Ras; format: cell-based; details: 41 h
[2] = test system: protein prenylation in J774 cells; test: Protein prenylation: incorporation of mevalonate into proteins; format: cell-based; details: for incorporation of radiolabel (mevalonate) into protein bands: 100 μM, 24 h labelling period
Rab6 = test: Immunoprecipitation of Rab6: geranylgeranylation of Rab6; format: cell-based; details: 41 h
J774 macrophages [3] = test: Assessment of apoptosis in J774 macrophages (nuclear morphology, DNA fragmentation); format: cell-based; details: 10-100 μM

IPI (IPP isomerase), sequence (Q13907 whole entry): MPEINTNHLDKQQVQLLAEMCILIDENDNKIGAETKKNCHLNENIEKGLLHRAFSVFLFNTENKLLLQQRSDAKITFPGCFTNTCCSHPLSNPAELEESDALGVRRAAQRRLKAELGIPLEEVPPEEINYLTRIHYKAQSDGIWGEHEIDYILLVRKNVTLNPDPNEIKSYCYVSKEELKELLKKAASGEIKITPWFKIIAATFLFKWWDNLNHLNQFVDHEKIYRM

For `NCCCC(O)(P(=O)(O)O)P(=O)(O)O` [ALENDRONATE, alendronate], the “inhibition of squalene synthase” value (squalene synthase) is listed as “not”, the “apoptosis and loss of cell viability with FPP or GGPP co-incubation” value (J774 macrophages [1]; 100 μM alendronate + 200 μM FPP or GGPP) is listed as “could be partially inhibited” and the IC50 (J774 macrophages [1]; Mus musculus, J774 cells, after 48 h) is listed as ~30 µM. The IC50 (IPI (IPP isomerase)) was 75 nM, the “farnesylated form of Ras after immunoprecipitation” value (Ras; 100 μM) was “barely detectable” and the “incorporation of radiolabel (mevalonate) into protein bands” value (shortened to “incorporation of radiolabel”) [2] was “markedly reduced”. The “geranylgeranylated form of Rab6 after immunoprecipitation” value (Rab6; 10 μM) was “barely detectable”.
In the case of `CCCCCN(C)CCC(O)(P(=O)(O)O)P(=O)(O)O` [IBANDRONATE, ibandronate], the “inhibition of squalene synthase” value (squalene synthase) is listed as “potent inhibitors”, the IC50 (IPI (IPP isomerase)) is listed as 35 nM and the “incorporation of radiolabel” value [2] is listed as “markedly reduced”.
With `O=P(O)(O)C(O)(Cc1cccnc1)P(=O)(O)O` [RISEDRONATE, risedronate] the IC50 (J774 macrophages [1]; Mus musculus, J774, 48 h) was ~3 µM and the IC50 (IPI (IPP isomerase)) was 22 nM.
In the case of `O=P(O)(O)C(NC1CCCCCC1)P(=O)(O)O` [YM175], the “inhibition of squalene synthase” value (squalene synthase) is given as “potent inhibitors”, the IC50 (IPI (IPP isomerase)) is given as 35 nM and the “incorporation of radiolabel” value [2] is given as “inhibited even more effectively”.
For `O=P(O)(O)C(Cl)(Cl)P(=O)(O)O` [clodronate], the “reduction in viability of J774 cells” value (J774 macrophages [1]; 750 μM) was “substantial reduction” and the “protein prenylation and synthesis of radiolabelled dye-front compounds” value ([2]; 750 μM) was “did not affect”.
In the case of `CC[C@H](C)C(=O)O[C@H]1CCC=C2C=C[C@H](C)[C@H](CC[C@@H]3C[C@@H](O)CC(=O)O3)[C@H]21` [mevastatin], the “loss of cell viability with cycloheximide co-incubation” value (J774 macrophages [1]; 15 μM mevastatin + 0.5 μM cycloheximide, 48 h) is reported as “could be prevented”, the IC50 (J774 macrophages [1]; J774 cells, after 48 h) is reported as ~10 µM and the “loss of cell viability and apoptosis with FPP, GGPP or mevalonic acid lactone co-incubation” value (J774 macrophages [1]; mevastatin + 200 μM FPP, GGPP or mevalonic acid lactone) is reported as “prevented (at least partially)”. The “farnesylated form of Ras after immunoprecipitation” value (Ras; 15 μM) was “Identical results”, the “geranylgeranylated form of Rab6 after immunoprecipitation” value (Rab6; 11 μM) was “barely detectable” and the “proportion of J774 cells with features typical of apoptosis” value (J774 macrophages [3]) was “dose-dependent increase”.
